Data from publication PMC5802399 (Nature, 2017).
Read-outs that look alike come from different tables or passages of the source. Bridge positions count the residues as written; N and C are the ends. Ends that are not written are not given here. Peptide text beside a SMILES is read from it.

Tests used:
[1] = tested on: H1N1 CA09 virus; set-up: species or system BALB/c mice; conditions: mouse, in vivo
[2] = format: physicochemical; conditions: pH 7.4
[3] = tested on: PR8 influenza virus; format: cell-based, Influenza A H1N1
[4] = tested on: group-1 influenza strains (H1N1, H5N1 and H6N2); format: cell-based, Influenza A
[5] = format: physicochemical; conditions: pH 7.4; remark: listed apart in the source
[6] = tested on: HK/X31 (H3N2), group 2; format: cell-based, Influenza A
[7] = tested on: H1N1 CA09 virus; set-up: species or system BALB/c mice; conditions: mouse, in vivo; remark: listed apart in the source
[8] = tested on: CA09 influenza virus (H1N1); format: cell-based, Influenza A H1N1
[9] = tested on: trypsin

Compound: CC[C@H](C)[C@@H]1NC(=O)[C@H](CCC(=O)O)NC(=O)[C@H](C)NC(=O)[C@H](C)NC(=O)[C@H]([C@@H](C)O)NC(=O)[C@H](CCC(N)=O)NC(=O)[C@@H]2CSSC[C@H](NC(=O)[C@H](CC(N)=O)NC(=O)CNC(=O)[C@H](CC(N)=O)NC(=O)[C@H](CC(=O)O)NC(=O)[C@H](C(C)C)NC(=O)[C@H](CCSC)NC(=O)[C@H]([C@@H](C)CC)NC(=O)[C@H](CCCCN)NC(=O)[C@H](C(C)C)NC(=O)[C@H]([C@@H](C)O)NC(=O)[C@H](Cc3ccc(O)cc3)NC(=O)CNC(=O)[C@H](Cc3ccccc3)NC(=O)[C@H](C)NC(=O)[C@H](CCCNC(=N)N)NC(=O)[C@H](Cc3c[nH]c4ccccc34)NC1=O)C(=O)N[C@@H](CCCNC(=N)N)C(=O)N[C@@H](CC(C)C)C(=O)N[C@@H](Cc1c[nH]cn1)C(=O)N[C@@H](C(C)C)C(=O)N[C@H](C(=O)O)CSSC[C@H](N)C(=O)N[C@@H]([C@@H](C)CC)C(=O)N[C@@H](CCC(=O)O)C(=O)N[C@@H](CCC(N)=O)C(=O)N[C@@H](CO)C(=O)N[C@@H](Cc1ccccc1)C(=O)N[C@@H]([C@@H](C)O)C(=O)N[C@@H]([C@@H](C)O)C(=O)N[C@@H](CC(C)C)C(=O)N[C@@H](Cc1ccccc1)C(=O)N[C@@H](C)C(=O)N2 [HB1.6928.2.3] (H-CIEQSFTTLFACQTAAEIWRAFGYTVKIMVDNGNCRLHVC-OH; disulfide 1-40, 12-35; N-terminus and C-terminus assumed)
- protection after intravenous administration [1]: little protection
- protection after repeated administration compared with no prior dosing [1]: remains equally protective
- survival [1]: 100%
- reduction of binding activity after incubation at 80 °C [2]: no detectable loss of binding
- neutralization of PR8 virus [3]: strongly neutralized
- efficiency (EC50) in inhibiting infection, compared with HB36.6 and FI6v3 [4]: most efficiently inhibited infection
- Tm [5]: >95 °C
- neutralization of H3N2 [6]: no neutralization
- survival [7]: 100%
- weight loss [7]: less than 10%
- EC50 for Cal09 (CA09), fold lower than FI6v3 or HB36.6 [8]: more than 100 fold
- neutralization of CA09 virus [8]: strongly neutralized

Compound: HB1.5702.3: chemically synthesized HA binder (TSGVRATSKFAALIAAEIAREFGYTVDVQEKNGEWRVVFD)
- trypsin concentration above which gel bands weaken (proteolytic degradation) [9]: > 2.86 µM

Compound: HB1.6394.2: chemically synthesized HA binder containing disulfides (CQEYRFTNPFACQIALEILRDFGYACTVQTINGECRVRCC; disulfide (positions not given here))
- degradation by trypsin [9]: no degradation

Compound: HB1.6928.2: chemically synthesized HA binder containing disulfides (CIEQSFTTLFACQTAAEIWRAFGYTVKIMVDNGNCRLHVC; disulfide (positions not given here))
- degradation by trypsin [9]: no degradation

Compound: TMTSITTSPFAAEIAARIWAEFGYTVRIETRGKTVHVTVD [HB1.6811.3]
- Tm [5]: 70 °C

Compound: TSGVRATSKFAALIAAEIAREFGYTVDVQEKNGEWRVVFD [HB1.5702.3.3]
- Tm [5]: 70 °C

Compound: TSRVRATSKFAALIAAEIAREFGYTVDVQEVNGQWEVTFD [HB1.5702.2]
- Tm [5]: 72 °C
